The source of these data is ChEMBL document CHEMBL1201862, “PubChem BioAssay data set” (2004).

Structures are written as SMILES. Calls of active or inactive are those of the source.

In assay [1] the target is T1, Rac GTPase-activating protein 1 (Homo sapiens, UniProt Q9H0H5).
T1 sequence (Q9H0H5 whole entry): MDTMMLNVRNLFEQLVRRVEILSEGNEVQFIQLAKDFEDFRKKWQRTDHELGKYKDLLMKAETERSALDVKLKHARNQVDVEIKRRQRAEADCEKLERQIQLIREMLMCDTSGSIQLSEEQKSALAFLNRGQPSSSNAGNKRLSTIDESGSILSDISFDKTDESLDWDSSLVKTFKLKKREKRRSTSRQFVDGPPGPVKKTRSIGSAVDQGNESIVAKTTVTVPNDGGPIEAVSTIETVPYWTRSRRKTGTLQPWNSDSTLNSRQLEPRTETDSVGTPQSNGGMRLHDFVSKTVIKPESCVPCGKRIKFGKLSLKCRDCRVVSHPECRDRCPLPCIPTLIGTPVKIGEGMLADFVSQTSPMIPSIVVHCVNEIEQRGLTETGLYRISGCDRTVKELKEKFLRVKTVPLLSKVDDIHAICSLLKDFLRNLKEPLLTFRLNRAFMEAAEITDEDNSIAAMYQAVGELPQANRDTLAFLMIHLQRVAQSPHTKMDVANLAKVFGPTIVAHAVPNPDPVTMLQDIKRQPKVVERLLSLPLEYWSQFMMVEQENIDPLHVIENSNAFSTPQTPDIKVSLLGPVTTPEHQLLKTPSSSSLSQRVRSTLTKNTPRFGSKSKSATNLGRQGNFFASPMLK
The assay can be described thus: blockers of MgcRacGAP-driven Rac1 GTP hydrolysis – biochemical, ADP Hunter fluorescence, primary and confirmatory, confirmation (AID 624330). Format: functional.

The target in assay [2] is T2, RNA-binding protein pos-1 (Caenorhabditis elegans, UniProt G5EF15).
T2 sequence (G5EF15 whole entry): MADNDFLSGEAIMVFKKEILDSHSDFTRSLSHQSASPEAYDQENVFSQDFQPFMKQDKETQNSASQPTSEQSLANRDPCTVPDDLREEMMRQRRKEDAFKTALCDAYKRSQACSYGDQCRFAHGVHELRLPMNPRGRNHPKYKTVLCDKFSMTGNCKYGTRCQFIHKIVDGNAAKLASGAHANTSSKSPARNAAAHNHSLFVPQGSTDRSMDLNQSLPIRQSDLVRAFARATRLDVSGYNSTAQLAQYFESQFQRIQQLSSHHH
The assay can be described thus: disruptors of C. elegans POS-1 RNA interaction – biochemical, fluorescence polarization, dose response (AID 1964).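 Further: purified POS-1 fused to maltose binding protein made in E. coli; potency of compounds blocking POS-1 binding to fluorescent RNA.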

The target of assay [3] is T3, Zinc finger protein mex-5 (Caenorhabditis elegans, UniProt Q9XUB2).
T3 sequence (Q9XUB2 whole entry): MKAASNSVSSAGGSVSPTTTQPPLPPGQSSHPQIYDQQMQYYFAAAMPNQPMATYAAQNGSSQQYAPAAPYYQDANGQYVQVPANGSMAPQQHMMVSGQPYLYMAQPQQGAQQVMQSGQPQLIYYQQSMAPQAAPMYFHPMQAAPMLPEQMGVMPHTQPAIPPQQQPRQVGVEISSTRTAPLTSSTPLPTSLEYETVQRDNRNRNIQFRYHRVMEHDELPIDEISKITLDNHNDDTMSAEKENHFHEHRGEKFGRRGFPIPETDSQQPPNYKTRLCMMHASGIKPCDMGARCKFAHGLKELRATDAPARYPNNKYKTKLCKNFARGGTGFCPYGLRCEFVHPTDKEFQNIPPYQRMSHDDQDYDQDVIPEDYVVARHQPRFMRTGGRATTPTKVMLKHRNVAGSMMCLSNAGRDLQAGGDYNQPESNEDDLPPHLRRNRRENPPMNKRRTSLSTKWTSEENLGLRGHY
The assay can be described thus: potency of MEX-5 RNA-binding blockers – biochemical, C. elegans, fluorescence polarization, dose response (AID 1960). For orientation: Fluorescence polarisation rises when a labelled molecule tumbles more slowly, as on binding a larger partner.

The next assay deals with T4, Cytochrome P450 1A2 (Homo sapiens, UniProt P05177).
T4 sequence (P05177 whole entry): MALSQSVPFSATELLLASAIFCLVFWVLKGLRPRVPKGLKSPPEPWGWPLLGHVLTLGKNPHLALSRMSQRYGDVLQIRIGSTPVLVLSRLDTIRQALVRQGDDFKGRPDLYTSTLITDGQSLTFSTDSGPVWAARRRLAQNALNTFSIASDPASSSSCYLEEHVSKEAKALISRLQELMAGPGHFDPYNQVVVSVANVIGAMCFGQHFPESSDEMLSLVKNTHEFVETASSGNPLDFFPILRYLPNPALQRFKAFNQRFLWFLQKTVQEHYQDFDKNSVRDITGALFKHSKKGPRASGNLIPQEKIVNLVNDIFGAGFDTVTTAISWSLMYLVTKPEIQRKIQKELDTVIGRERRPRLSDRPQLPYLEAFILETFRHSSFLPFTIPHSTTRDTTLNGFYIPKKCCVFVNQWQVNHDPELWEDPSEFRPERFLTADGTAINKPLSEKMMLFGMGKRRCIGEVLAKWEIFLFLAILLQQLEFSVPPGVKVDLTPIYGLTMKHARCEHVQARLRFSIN

A further assay concerns the target Cytochrome P450 3A4 (Homo sapiens, UniProt P08684).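 Further: CYP3A4 tested as one member of a cytochrome P450 panel screen.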
Another assay has as its target Cytochrome P450 2C19 (Homo sapiens, UniProt P33261). The assay can be described thus: Cytochrome panel assay with activity outcomes. Panel member name: p450-cyp2c19 Compounds with AC50 equal or less than 10 uM are considered active. In kind it is functional. Particulars: read-out: AC50.
A further assay deals with H4. The assay can be described thus: Luminescence Cell-Based Dose Response HTS to Identify Activators of 5'UTR Stem-Loop Driven Prion Protein mRNA Translation in H4 Neuroglioblastoma Cells. [Related pubchem assays: 1829 (Project Summary), 1814 (Primary HTS)]. To be noted: Homo sapiens. Format: functional.
Assay [4] is described as follows: Luminescence Cell-Based Dose Response HTS to Identify Activators of Luciferase Translation or Activity in H4 […] Cells. [Related pubchem assays: 1829 (Project Summary), 1814 (Primary HTS)]. Format: functional.
Assay [5] is described as follows: Luminescence Cell-Based Dose Confirmation HTS to Identify Activators of 5'UTR Stem-Loop Driven Alpha-Synuclein mRNA Translation in H4 Neuroglioblastoma Cells. [Related pubchem assays: 1829 (Project Summary), 1814 (Primary HTS)]. In kind it is functional.
The target of assay [6] is T5, Heat shock factor protein 1 (Mus musculus, UniProt P38532).
T5 sequence (P38532 whole entry): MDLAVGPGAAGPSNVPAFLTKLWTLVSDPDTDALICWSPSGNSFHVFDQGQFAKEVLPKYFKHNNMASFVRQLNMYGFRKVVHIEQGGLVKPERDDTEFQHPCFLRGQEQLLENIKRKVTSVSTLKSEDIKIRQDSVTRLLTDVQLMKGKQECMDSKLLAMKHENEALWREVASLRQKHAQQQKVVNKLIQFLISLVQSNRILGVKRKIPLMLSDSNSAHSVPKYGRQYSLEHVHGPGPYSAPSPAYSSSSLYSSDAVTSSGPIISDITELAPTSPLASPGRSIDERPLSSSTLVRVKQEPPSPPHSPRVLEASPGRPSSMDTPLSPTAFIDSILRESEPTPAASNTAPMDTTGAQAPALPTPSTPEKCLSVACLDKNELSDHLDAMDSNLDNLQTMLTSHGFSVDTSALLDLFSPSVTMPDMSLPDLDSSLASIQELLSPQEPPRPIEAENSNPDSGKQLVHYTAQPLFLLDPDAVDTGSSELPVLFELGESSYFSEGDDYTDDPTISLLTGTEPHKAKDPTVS
The assay can be described thus: decrease of HSF1-responsive luciferase luminescence – cell-based, NIH3T3, dose retest, confirmation (AID 2382).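 Further: NIH3T3 fibroblasts with HSF1-driven luciferase reporter stressed by proteasome inhibitor MG132; luminescence from HSF1-driven luciferase expression after 8 hours of MG132 stress.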 In kind it is functional.

Cytochrome P450 3A4, sequence (P08684 whole entry): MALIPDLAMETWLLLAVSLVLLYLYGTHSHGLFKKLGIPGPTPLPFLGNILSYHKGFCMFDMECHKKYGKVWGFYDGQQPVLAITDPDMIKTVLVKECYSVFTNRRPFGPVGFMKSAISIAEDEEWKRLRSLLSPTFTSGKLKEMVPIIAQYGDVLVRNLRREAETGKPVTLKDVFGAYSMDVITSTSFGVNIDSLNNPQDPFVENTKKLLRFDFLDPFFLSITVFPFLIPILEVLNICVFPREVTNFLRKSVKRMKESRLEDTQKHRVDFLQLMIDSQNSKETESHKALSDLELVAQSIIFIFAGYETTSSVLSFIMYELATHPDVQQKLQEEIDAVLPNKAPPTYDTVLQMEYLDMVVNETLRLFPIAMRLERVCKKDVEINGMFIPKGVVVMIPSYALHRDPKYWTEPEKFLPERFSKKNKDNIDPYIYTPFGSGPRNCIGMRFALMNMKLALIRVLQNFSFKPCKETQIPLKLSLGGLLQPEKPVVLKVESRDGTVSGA
Cytochrome P450 2C19, sequence (P33261 whole entry): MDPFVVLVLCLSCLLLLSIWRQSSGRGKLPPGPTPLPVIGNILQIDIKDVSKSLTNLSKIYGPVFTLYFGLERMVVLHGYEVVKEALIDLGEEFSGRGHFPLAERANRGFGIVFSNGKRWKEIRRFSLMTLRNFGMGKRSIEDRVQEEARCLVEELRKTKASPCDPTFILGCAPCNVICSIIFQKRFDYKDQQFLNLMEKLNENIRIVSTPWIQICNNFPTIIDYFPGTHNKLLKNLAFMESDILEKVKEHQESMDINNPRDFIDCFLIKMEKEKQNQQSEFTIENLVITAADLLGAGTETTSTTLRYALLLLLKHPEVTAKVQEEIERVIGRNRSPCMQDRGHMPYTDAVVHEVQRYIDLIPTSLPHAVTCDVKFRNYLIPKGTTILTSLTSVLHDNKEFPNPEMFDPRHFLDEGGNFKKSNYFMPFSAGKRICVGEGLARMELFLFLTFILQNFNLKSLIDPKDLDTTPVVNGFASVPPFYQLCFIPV

The term IC50 denotes the concentration that inhibits the measured activity by half. Regarding `O=C(O)CCCn1c(=S)[nH]c2c(sc3ccc([N+](=O)[O-])cc32)c1=O`, in assay [1], the IC50 was 40.3 µM (active).
As usually defined, the EC50 is the concentration needed to bring the measured effect to its halfway point. As to `COc1ccc(N/C=C2/C(=O)N(c3cccc(C)n3)C(=O)c3ccccc32)cc1`, the EC50 in assay [2] and in assay [3] was > 300 µM (not active) throughout.
What is called AC50 is the midpoint of the concentration-response curve, whichever way the signal moves. With `O=c1c(-c2cccs2)nc2cnc(N3CCOCC3)nc2n1Cc1ccc(F)cc1`, the AC50 at Cytochrome P450 1A2 is 20 µM (inconclusive); at Cytochrome P450 3A4 it was 2.51 µM (inconclusive).
Take `O=C(c1cccc(Cl)c1)N1CCN(Cc2ccncc2)CC1`: the IC50 in [1] is 99.7 µM (active).
On to `C/C(NCCN1CCCCC1)=C1/C(=O)NC(=O)N(c2ccc(Cl)cc2)C1=O`, for which the EC50 in [2] and in assay [3] was > 300 µM (not active) in each case.
For `COC(=O)CCCC1=CC2=CC(=O)C(C)(OC(=O)c3cnc4ccccc4n3)C(=O)C2=CO1` (stereo not drawn), the EC50 in assay [2] is 12.7 µM (active); in [3], 12.3 µM (active).
As for `O=c1c(-c2cccc(F)c2)nc2cncnc2n1C1CC1`, the AC50 at Cytochrome P450 3A4 was 12.6 µM (inconclusive).
As for `COCCNCC(=O)Nc1ccc(C)c(S(=O)(=O)N2CCCCC2)c1`, the IC50 in assay [1] is 132 µM (active).
With `CC(C)c1ccc(N2C(=O)CC(Sc3nc4ccccc4o3)C2=O)cc1` (stereo not drawn), the results for the AC50 at Cytochrome P450 1A2 and on Cytochrome P450 3A4 were 5.01 µM (inconclusive) and 39.8 µM (inconclusive), respectively.
Regarding `CC(=O)c1ccc2c(c1)C1C=CCC1C(c1cc3c(cc1Br)OCO3)N2` (stereo not drawn), the EC50 in assay [2] and in [3] was > 300 µM (not active) each time.
Consider `CCNc1ncc2nc(-c3ccc(OC)cc3)c(=O)n(-c3ccc(OC)cc3)c2n1`, for which, at Cytochrome P450 3A4, the AC50 is 12.6 µM (inconclusive).
Take `Cc1cc(C)cc(N2C(=O)/C(=C\c3ccc(N4CCN(C)CC4)o3)C(=O)NC2=S)c1`: the EC50 in assay [2] and in assay [3] was > 300 µM (inconclusive) throughout.
Regarding `COCCNC(=O)CSc1nc2cc(OC)c(OC)cc2c(=O)n1Cc1ccco1`, the AC50 at Cytochrome P450 2C19 is 20 µM (inconclusive); at Cytochrome P450 3A4, 3.55 µM (inconclusive).
As to `N#CCCn1c(=O)c(-c2ccc(F)cc2)nc2cnc(N3CCNCC3)nc21`, the AC50 on Cytochrome P450 3A4 was 25.1 µM (inconclusive).
Take `CS(=O)(=O)N1CCC[C@@]2(CCN(C(=O)Nc3cccc(F)c3)C2)C1`: the concentration at half-maximal activity (AC50) on Cytochrome P450 3A4 is 12.6 µM (inconclusive).
Regarding `CCOC(=O)N1CCN(/C=C(\C#N)c2nc3ccccc3s2)CC1`, the EC50 in [2] was > 300 µM (not active); in assay [3] it was > 300 µM (not active); in the assay with H4, 37.5 µM (active); in assay [4], 14.7 µM (active); in assay [5], 38 µM (active).
Turning to `c1cc(CNc2ccc3c(c2)OCCO3)ccn1`, in [1], the IC50 was 108 µM (active). In addition, the EC50 in assay [6] was 6.77 µM (active).
Regarding `COCC1CCN(C(=O)CC2C(=O)NCCN2Cc2cccc(Oc3ccccc3)c2)CC1` (stereo not drawn), the EC50 in assay [2] and in [3] was > 300 µM (not active) each time.
Take `COc1ccc(O[C@H]2C=C[C@@H](c3ccccc3)O[C@H]2CO/N=C(/C)CCC(=O)OC[C@@H]2O[C@H](C#Cc3ccccc3)C=C[C@@H]2Oc2ccc(C)cc2)cc1`: the AC50 on Cytochrome P450 2C19 is 0.126 µM (inconclusive); on Cytochrome P450 3A4 it was 3.16 µM (inconclusive).
Consider `CCN(CC)c1ccc(N/C=C2/C(=O)NC(=O)N(c3ccccc3)C2=O)cc1`, for which the EC50 in assay [2] and in assay [3] was > 300 µM (not active) throughout.
As for `CCc1ccc2nc3sc(C(=O)O)cc3cc2c1`, in assay [1], the IC50 was 122 µM (active).
`Cn1c(S)nnc1CNS(=O)(=O)c1ccc(Cl)cc1`: the AC50 on Cytochrome P450 3A4 is 15.8 µM (inconclusive).
With `CCOC(=O)c1nc(S)n(Cc2ccccc2)c1C(=O)OCC`, the IC50 in assay [1] was 49.6 µM (active).
In the case of `O=C(O)CC1SC(Nc2ccc(O)cc2)=NC1=O` (stereo not drawn), in assay [1], the IC50 is 118 µM (active).
With `Cc1c(/C=N/NC(=O)c2cc(O)nc(O)n2)c2ccccn2c1C(=O)c1ccccc1`, the EC50 in assay [2] is > 300 µM (not active); in assay [3] it was > 300 µM (inconclusive).
As to `CCOc1cccc2cc(C(N)=O)/c(=N/Cc3ccccc3)oc12`, the AC50 at Cytochrome P450 3A4 is 14.1 µM (inconclusive).
On to `COc1ccc(NC2CCCN(C(=O)c3ccccc3-c3ncc[nH]3)C2)cc1` (stereo not drawn), for which, in [1], the IC50 was 146 µM (active).
Take `CN(C)CCO/N=C(\c1ccc(Br)cc1)c1cccnc1`: the concentration for half-maximal inhibition (IC50) in assay [1] was 141 µM (active).
For `COC(=O)c1ccc(C2Nc3ccc(/C(C)=N/NC(=O)C(OC)c4ccccc4)cc3C3C=CCC32)cc1` (stereo not drawn), the EC50 in assay [2] was > 300 µM (not active); in assay [3], 35.2 µM (active).
Consider `CC1(C)CC(=O)C(/C=N/c2ccc(N)cc2)=C(O)C1`, for which the 50% inhibitory concentration (IC50) in [1] was 46.9 µM (active).
As to `O=[N+]([O-])c1ccc(/N=C/C=C(\O)c2ccc(Br)cc2)cc1`, the concentration giving a half-maximal response (EC50) in assay [2] and in assay [3] was > 300 µM (not active) each time.
As for `COc1cc(/C=N/n2c(C)nc3ccccc3c2=O)ccc1O`, in [1], the IC50 is 48.5 µM (active).
Turning to `Cc1noc(NS(=O)(=O)c2cccc3c(N(C)C)cccc23)c1C` [BMS-182874], on Cytochrome P450 3A4, the half-maximal activity concentration (AC50) was 20 µM (inconclusive).
In the case of `CCCCN1CCCC[C@H]1C(=O)Nc1c(C)cccc1C` [LEVOBUPIVACAINE], the AC50 on Cytochrome P450 3A4 is 10 µM (inconclusive).
